Molecular target: T1, KRAS G12C/SOS/c-Raf complex (Homo sapiens, UniProt P01116, G12C)
T1 construct: Biotinylated AviTag-KRAS G12C (amino acid region 1-185, GDP)
Test: KRAS G12C/SOS/c-Raf complex formation inhibitory action (TR-FRET)
Assay type: biochemical
Conditions: one hour at room temperature, read-out: IC50 (KRAS G12C/SOS/c-Raf complex formation inhibition)
Method: Evaluation of KRAS G12C/SOS/c-Raf Complex Formation Inhibitory Action
Human Recombinant KRAS G12C, SOS, and c-Raf protein were used, and with respect to the complex formation of these proteins, an inhibitory action of the test compound was examined through a time-resolved fluorescence resonance energy transfer (TR-FRET) method.
Biotinylated AviTag-KRAS G12C (amino acid region 1-185, GDP) (2.5 μL; 400 nM) dissolved in assay buffer (50 mM HEPES, 150 mM NaCl, 5 mM MgCl2, 0.05% Tween 20, pH 7.4) and test compound were added in a volume of 2.5 μL from 4,000 nM to 4 nM were added to 384 well plate (Corning Inc). Son of Sevenless (SOS) (amino acid region 564-1049, 2.5 μL; 1.3 μM) and c-Raf (amino acid region 51-131) GST containing GTP (Sigma-Aldrich Co. LLC) (2.5 μL; 130 nM and 4 μM of each) were added to the above mixture, and the resultant was left to stand for one hour at room temperature. Thereafter, a mixed solution (10 μL) of LANCE Ulight-anti-GST (120 nM, PerkinElmer. Co., Ltd) and LANCE Eu-W1024 labeled Streptoavidin (100 ng/mL, PerkinElmer. Co., Ltd) was added, and a fluorescence intensity on the condition of wavelength of 620 nm and 665 nm was measured by using EnVision 2103 Multilabel Reader (PerkinElmer Co., Ltd.) under the condition of excitation wavelength of 337 nm. […] In Tables, Ex represents Example numbers described later. In addition, in Tables, Compound C represents a test compound of Example I-59 disclosed in Pamphlet of International Publication No. WO 2016/164675, and the structures of Reference Example 1 and Reference Example 2 are indicated in Table 168 described below (the same shall apply hereinafter).

T1 sequence (P01116 1-185 isoform P01116-2 G12C, one chain of several): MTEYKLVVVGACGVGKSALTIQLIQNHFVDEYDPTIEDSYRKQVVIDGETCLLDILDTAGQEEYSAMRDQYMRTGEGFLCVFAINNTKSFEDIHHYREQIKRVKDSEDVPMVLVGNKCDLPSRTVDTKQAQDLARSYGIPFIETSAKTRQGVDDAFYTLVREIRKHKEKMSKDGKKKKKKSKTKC

IC50 [nM] | Compound
21 | C=CC(=O)N1CC2(CCN(c3nc(OC4CCN(CCOC)CC4)nc4c(OCC(F)(F)F)c(-c5c(C)ccc6[nH]ncc56)c(C=C)cc34)CC2)C1 [Ex 36]
15 | C=CC(=O)N1CC2(CCN(c3nc(OC4CCN(CCCOC)CC4)nc4c(OCC(F)(F)F)c(-c5c(C)ccc6[nH]ncc56)c(C5CC5)cc34)CC2)C1 [Ex 38]

— US10774082B2, “Quinazoline compound” (Astellas Pharma Inc., priority 2017, dated 2020)
